Experimental data published in patent publication US20200277649A1, “BROAD SPECTRUM DETECTION OF DNA DAMAGE BY REPAIR ASSISTED DAMAGE DETECTION (RADD)” (University of South Alabama, priority 2017, published 2020).

System: CHO-K1 cells
Experiment: RADD detection of BrdU incorporation into genomic DNA
Format: cell-based, Chinese hamster
Settings: CHO-K1 cells sensitized 24 h, versus basal levels, FIG. 5A

In the case of O=c1[nH]c(=O)n([C@H]2C[C@H](O)[C@@H](CO)O2)cc1Br [BrdU, bromodeoxyuridine], the “RADD mean fluorescence intensity of the nucleus (DNA lesions)” value is reported as “increased levels of DNA lesions”.
